Reference: article PMC8636726 (Synthetic and Systems Biotechnology, 2021)

target: T1, EmbR protein (Mycobacterium tuberculosis, UniProt P9WGJ9); assay type: binding; details: BLI, clinical TB drugs tested as controls under the same conditions
T1 sequence (P9WGJ9 1-388): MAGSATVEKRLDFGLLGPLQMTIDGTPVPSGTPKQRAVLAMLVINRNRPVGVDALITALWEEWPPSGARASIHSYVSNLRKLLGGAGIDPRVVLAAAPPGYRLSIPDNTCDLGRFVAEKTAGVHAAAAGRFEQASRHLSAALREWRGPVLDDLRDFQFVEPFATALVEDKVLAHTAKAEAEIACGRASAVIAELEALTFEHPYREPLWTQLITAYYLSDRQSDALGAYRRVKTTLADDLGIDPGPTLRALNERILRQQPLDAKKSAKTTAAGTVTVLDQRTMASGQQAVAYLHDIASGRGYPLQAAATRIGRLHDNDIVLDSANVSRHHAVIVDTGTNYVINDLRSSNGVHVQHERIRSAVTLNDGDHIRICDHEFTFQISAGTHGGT

Row | SMILES | binding to EmbR
1 | CO[C@H]1/C=C/O[C@@]2(C)Oc3c(C)c(O)c4c(O)c(c(/C=N/N5CCN(C)CC5)c(O)c4c3C2=O)NC(=O)/C(C)=C\C=C\[C@H](C)[C@H](O)[C@@H](C)[C@@H](O)[C@@H](C)[C@H](OC(C)=O)[C@@H]1C [RIF, rifampicin] | no significant binding
2 | NNC(=O)c1ccncc1 [INH, isoniazid] | no significant binding
3 | CC[C@@H](CO)NCCN[C@@H](CC)CO [EMB, Ethambutol] | no significant binding
